Consider 21 compounds from PubChem BioAssay AID330 (DTP/NCI, 2004).

For the experiment, the system named is P388 leukemia ip, CD2F1 mice, survival T/C. As to the kind of experiment: NCI In Vivo Anticancer Drug Screen. Data for tumor model P388 Leukemia (intraperitoneal) in CD2F1 (CDF1) mice. Conditions: endpoint: median survival time, higher = longer survival. In a few lines: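 Mice carrying the transplanted tumor received test compound or vehicle. Survival was recorded in each group, and the value is the treated-group measurement divided by that of the vehicle-treated control group.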

[1] abbreviates: dose: 50.0 mg/kg/injection, schedule: Q01DX005 (ip), vehicle: saline.
Setting [2] is: dose: 50.0 mg/kg/injection, schedule: Q01DX005 (ip), vehicle: Klucel (hydroxypropylcellulose) (HPC).
[3] abbreviates: dose: 100.0 mg/kg/injection, schedule: Q01DX005 (ip), vehicle: Klucel (hydroxypropylcellulose) (HPC).
[4] abbreviates: dose: 200.0 mg/kg/injection, schedule: Q01DX005 (ip), vehicle: Klucel (hydroxypropylcellulose) (HPC).
Where [5] appears, read: dose: 25.0 mg/kg/injection, schedule: Q01DX009 (ip), vehicle: saline.
[6] abbreviates: dose: 50.0 mg/kg/injection, schedule: Q01DX009 (ip), vehicle: saline.
Where [7] appears, read: dose: 100.0 mg/kg/injection, schedule: Q01DX009 (ip), vehicle: saline.
The mark [8] stands for this setting: dose: 200.0 mg/kg/injection, schedule: Q01DX009 (ip), vehicle: saline.
Setting [9] is: dose: 60.0 mg/kg/injection, schedule: Q01DX005 (ip), vehicle: saline with Tween-80.
Setting [10] is: dose: 120.0 mg/kg/injection, schedule: Q01DX005 (ip), vehicle: saline with Tween-80.
[11] abbreviates: dose: 240.0 mg/kg/injection, schedule: Q01DX005 (ip), vehicle: saline with Tween-80.
Setting [12] is: dose: 100.0 mg/kg/injection, schedule: Q01DX001 (ip), vehicle: Klucel (hydroxypropylcellulose) (HPC).

“And” between values parts separate entries of the source, which are not always exact repeats. Identical values can stand only once. Inconclusive results and toxic doses are left out.

Consider `N#CC(OC(=O)c1cccc(C(=O)OC(C#N)(C(F)(F)F)C(F)(F)F)c1Sc1ccccc1)(C(F)(F)F)C(F)(F)F`, for which the T/C runs as follows: (dose: 100.0 mg/kg/injection, schedule: Q04DX002 (ip), vehicle: Klucel (hydroxypropylcellulose) (HPC)) 109 % of control; (dose: 400.0 mg/kg/injection, schedule: Q04DX002 (ip), vehicle: Klucel (hydroxypropylcellulose) (HPC)) 115 % of control.
In the case of `CSc1cccc(NC(=O)OCCOc2ccc(Cl)c(C)c2)c1`, the T/C by setting is: (dose: 50.0 mg/kg/injection, schedule: Q01DX009 (ip), vehicle: Klucel (hydroxypropylcellulose) (HPC)) 92 % of control; (dose: 100.0 mg/kg/injection, schedule: Q01DX009 (ip), vehicle: Klucel (hydroxypropylcellulose) (HPC)) 97 % of control; (dose: 200.0 mg/kg/injection, schedule: Q01DX009 (ip), vehicle: Klucel (hydroxypropylcellulose) (HPC)) 92 % of control.
As to `O=S1(=O)CS(=O)(=O)OCCCCO1`, the T/C (dose: 12.5 mg/kg/injection, schedule: Q01DX005 (ip), vehicle: saline) is 176 % of control; the T/C (dose: 25.0 mg/kg/injection, schedule: Q01DX005 (ip), vehicle: saline) was 167 % of control and 199 % of control; the T/C under setting [1] is 87 % of control.
Turning to `O=C(Nc1ccc(N=C(NC2CCCCC2)c2ccccc2)cc1)c1ccc(C(=O)Nc2ccc(N=C(NC3CCCCC3)c3ccccc3)cc2)cc1`, the T/C (dose: 12.5 mg/kg/injection, schedule: Q01DX005 (ip), vehicle: Klucel (hydroxypropylcellulose) (HPC)) is 104 % of control; the T/C (dose: 25.0 mg/kg/injection, schedule: Q01DX005 (ip), vehicle: Klucel (hydroxypropylcellulose) (HPC)) was 103 % of control; the T/C under setting [2] is 104 % of control and 111 % of control; the T/C under setting [3] is 91 % of control; the T/C under setting [4] was 106 % of control.
For `COC(=O)C(Br)C(Br)c1ccccc1` (centres undefined), the T/C by setting is: under setting [5], 104 % of control and 111 % of control; (dose: 50.0 mg/kg/injection, schedule: Q01DX009 (ip), vehicle: saline with Tween-80) 110 % of control; under setting [6], 119 % of control; (dose: 100.0 mg/kg/injection, schedule: Q01DX009 (ip), vehicle: saline with Tween-80) 91 % of control; under setting [7], 120 % of control; (dose: 132.0 mg/kg/injection, schedule: Q01DX009 (ip), vehicle: saline with Tween-80) 113 % of control. In addition, the T/C runs as follows: (dose: 200.0 mg/kg/injection, schedule: Q01DX009 (ip), vehicle: saline with Tween-80) 107 % of control and 113 % of control; under setting [8], 122 % of control; (dose: 300.0 mg/kg/injection, schedule: Q01DX009 (ip), vehicle: saline with Tween-80) 95 % of control.
Consider `CN(C)CCN(Cc1ccc(Cl)s1)c1ccccn1`, for which the T/C under setting [1] is 101 % of control and the T/C (dose: 100.0 mg/kg/injection, schedule: Q01DX005 (ip), vehicle: saline) is 99 % of control.
As to `NS(=O)(=O)c1ccc(N=c2c3ccccc3n(-c3ccccc3)c3ccccc23)cc1`, the T/C by setting is: (dose: 50.0 mg/kg/injection, schedule: Q01DX005 (ip), vehicle: saline with Tween-80) 102 % of control; (dose: 100.0 mg/kg/injection, schedule: Q01DX005 (ip), vehicle: saline with Tween-80) 93 % of control; (dose: 200.0 mg/kg/injection, schedule: Q01DX005 (ip), vehicle: saline with Tween-80) 90 % of control.
As for `CCCc1nc(N)[nH]c(=O)c1CCCCc1ccccc1`, the T/C is, setting by setting: under setting [9], 90 % of control and 96 % of control; under setting [10], 88 % of control and 103 % of control; under setting [11], 96 % of control and 87 % of control.
As to `O=C1C(=C(C(F)(F)F)C(F)(F)F)C2CCC1C2` (centres undefined), the T/C is 100 % of control (dose: 3.13 mg/kg/injection, schedule: Q01DX009 (ip), vehicle: saline with Tween-80); 110 % of control (dose: 6.25 mg/kg/injection, schedule: Q01DX009 (ip), vehicle: saline with Tween-80); 100 % of control (dose: 12.5 mg/kg/injection, schedule: Q01DX009 (ip), vehicle: saline with Tween-80).
In the case of `CN1CCC(O)(c2nccc3ccccc23)CC1`, the T/C runs as follows: (dose: 50.0 mg/kg/injection, schedule: Q01DX001 (ip), vehicle: Klucel (hydroxypropylcellulose) (HPC)) 111 % of control; under setting [12], 96 % of control.
As for `CC(=O)C1=CN(C)c2ccccc2S1`, the T/C was 103 % of control under setting [2], 99 % of control under setting [3] and 108 % of control under setting [4].
Take `CC1N=C(SCc2ccc(Cl)cc2)N2C(C)N=C(SCc3ccc(Cl)cc3)N12` (centres undefined): the T/C by setting is: under setting [6], 112 % of control; under setting [7], 110 % of control; under setting [8], 104 % of control.
For `CSCSCC(CO)NC(=O)/C=C/c1c[nH]c(=O)[nH]c1=O` (centres undefined), the T/C by setting is: (dose: 1.0 mg/kg/injection, schedule: Q01DX009 (ip), vehicle: other) 92 % of control; (dose: 2.0 mg/kg/injection, schedule: Q01DX009 (ip), vehicle: other) 97 % of control; (dose: 4.0 mg/kg/injection, schedule: Q01DX009 (ip), vehicle: other) 98 % of control; (dose: 8.0 mg/kg/injection, schedule: Q01DX009 (ip), vehicle: other) 93 % of control; (dose: 16.0 mg/kg/injection, schedule: Q01DX009 (ip), vehicle: other) 102 % of control; (dose: 32.0 mg/kg/injection, schedule: Q01DX009 (ip), vehicle: other) 107 % of control.
With `O=S1(=O)C(=C(c2ccccc2)c2ccccc2)S(=O)(=O)c2ccccc21`, the T/C under setting [9] was 104 % of control, the T/C under setting [10] was 96 % of control and the T/C under setting [11] is 102 % of control.
Consider `CC(C)N(c1cc(=O)nc2ccccn12)C(C)C`, for which the T/C is 101 % of control (dose: 60.0 mg/kg/injection, schedule: Q01DX005 (ip), vehicle: saline); 98 % of control (dose: 120.0 mg/kg/injection, schedule: Q01DX005 (ip), vehicle: saline); 100 % of control (dose: 240.0 mg/kg/injection, schedule: Q01DX005 (ip), vehicle: saline).
Consider `O=C(CC(=O)c1ccccc1)Nc1ccc(-c2nc3ccccc3c(=O)[nH]2)cc1`, for which the T/C (dose: 50.0 mg/kg/injection, schedule: Q01DX009 (ip), vehicle: saline + alcohol) is 97 % of control; the T/C (dose: 100.0 mg/kg/injection, schedule: Q01DX009 (ip), vehicle: saline + alcohol) is 92 % of control; the T/C (dose: 200.0 mg/kg/injection, schedule: Q01DX009 (ip), vehicle: saline + alcohol) was 94 % of control.
Take `C=C(C)c1nc(NCC)nc(NCC)n1`: the T/C runs as follows: under setting [12], 94 % of control; (dose: 200.0 mg/kg/injection, schedule: Q01DX001 (ip), vehicle: Klucel (hydroxypropylcellulose) (HPC)) 90 % of control; (dose: 400.0 mg/kg/injection, schedule: Q01DX001 (ip), vehicle: Klucel (hydroxypropylcellulose) (HPC)) 92 % of control.
Regarding `COC(=O)c1ncn(C(C(=O)OC)C(=O)OC)c1O`, the T/C was 104 % of control under setting [9], 100 % of control under setting [10] and 113 % of control under setting [11].
For the compound `Cn1c([N+](=O)[O-])cnc1/C=N\N1CC(CN2CCOCC2)OC1=O` (centres undefined), the T/C reads like this: (dose: 50.0 mg/kg/injection, schedule: Q01DX009 (ip), vehicle: suspension in saline) 100 % of control; (dose: 100.0 mg/kg/injection, schedule: Q01DX009 (ip), vehicle: suspension in saline) 100 % of control; (dose: 200.0 mg/kg/injection, schedule: Q01DX009 (ip), vehicle: suspension in saline) 100 % of control.
As to `O=C(NC1CCCCC1)O/N=C/c1ccccn1`, the T/C runs as follows: (dose: 50.0 mg/kg/injection, schedule: Q01DX001 (ip), vehicle: other) 95 % of control; (dose: 100.0 mg/kg/injection, schedule: Q01DX001 (ip), vehicle: other) 95 % of control; (dose: 200.0 mg/kg/injection, schedule: Q01DX001 (ip), vehicle: other) 100 % of control.
Consider `C1O[C@@H]1[C@H]1CO1`, for which the T/C runs as follows: (dose: 6.25 mg/kg/injection, schedule: Q01DX009 (ip), vehicle: saline) 104 % of control; (dose: 6.25 mg/kg/injection, schedule: Q04DX003 (ip), vehicle: saline) 120 % of control; (dose: 12.5 mg/kg/injection, schedule: Q01DX009 (ip), vehicle: saline) 109 % of control; (dose: 12.5 mg/kg/injection, schedule: Q04DX003 (ip), vehicle: saline) 120 % of control; under setting [5], 157 % of control; (dose: 25.0 mg/kg/injection, schedule: Q04DX003 (ip), vehicle: saline) 100 % of control.
